SMILES strings stand for the structures. Like-named read-outs stand apart in the source and are kept apart here. A value given as a limit tells only on which side of the number the result lay.

This assay deals with human PDHK2 (hPDHK2) (Homo sapiens (Human), UniProt Q15119). Kind of assay: Inhibitory action of PDHK activity in vitro (kinase reaction, residual PDH activity measured). The format is biochemical.
Setting [1] is: PDHK inhibitory activity, class symbol of IC50.
Setting [2] is: read-out: PDHK inhibitory activity IC50.
The mark [3] stands for this setting: PDHK inhibitory activity (class symbol).

For the compound `COC(=O)COc1cc(Br)c2c(c1)C(O)(C(F)(F)F)c1ccccc1-2` (single isomer, unassigned) [compound 451, (4-bromo-9-hydroxy-9-trifluoromethyl-9H-fluoren-2-yloxy)-acetic acid methyl ester], the IC50 was 0.1 to 1 µM under setting [1] and 0.102 µM under setting [2].
In the same order, the values of `CC(C)Oc1ccc2c(c1)C(O)(C(F)(F)F)c1ccccc1-2` (stereo not shown) [compound 110] are over 1 µM and 2.49 µM.
As to `CC(=O)Nc1ccccc1-c1ccc2c(c1)C(O)(C(F)(F)F)c1ccccc1-2` (stereo not shown) [compound 190], the IC50 was over 1 µM under setting [1] and over 10 µM under setting [2].
In the same order, the values of `O=C(c1cc(Br)c2c(c1)C(O)(C(F)(F)F)c1ccccc1-2)N1CCC1` (stereo not shown) [compound 114] are under 0.1 µM and 0.051 µM.
Take `O=C1NCCN1CCOc1ccc2c(c1)C(O)(C(F)(F)F)c1ccccc1-2` (stereo not shown) [compound 469]: the IC50 by setting is: under setting [1], 0.1 to 1 µM; under setting [2], 0.193 µM.
For `NC(=O)COC1CN(C(=O)c2ccc3c(c2)C(O)(C(F)(F)F)c2ccccc2-3)C1` (stereo not shown) [compound 116] the same measures were 0.1 to 1 µM and 0.601 µM.
For `CN(CCCCO)C(=O)c1ccc2c(c1)C(O)(C(F)(F)F)c1ccccc1-2` (stereo not shown) [compound 319] the same measures were over 1 µM and 3.09 µM.
For `OCCCCCOc1cc(-c2cncnc2)c2c(c1)C(O)(C(F)(F)F)c1ccccc1-2` (stereo not shown) [compound 406] the same measures were under 0.1 µM and 0.025 µM.
Consider `CNC(=O)c1ccccc1-c1ccc2c(c1)C(O)(C(F)(F)F)c1ccccc1-2` (stereo not shown) [compound 183], for which the IC50 reads like this: under setting [1], over 1 µM; under setting [2], over 10 µM.
In the same order, the values of `CC(=O)N(C)C[C@@H](O)COc1cc(-c2cnn(C)c2)c2c(c1)C(O)(C(F)(F)F)c1ccccc1-2` (stereo partly shown) [compound 499] are under 0.1 µM and 0.039 µM.
With `CC(C)c1cc(-c2cnn(C(CO)CO)c2)c2c(c1)C(O)(C(F)(F)F)c1ccccc1-2` (stereo not shown) [compound 654], the IC50 runs as follows: under setting [3], under 0.1 µM; under setting [2], 0.055 µM.
In the same order, the values of `CC(C)Cc1cc(-c2cnn(C(CO)CO)c2)c2c(c1)C(O)(C(F)(F)F)c1ccccc1-2` (single isomer, unassigned) [compound 665] are under 0.1 µM and 0.023 µM.
`Cn1cc(-c2cc(C(=O)N3CCC[C@@H]3CO)cc3c2-c2ccccc2C3(O)C(F)(F)F)cn1` (stereo partly shown) [compound 392]: the IC50 was 0.1 to 1 µM under setting [1] and 0.2 µM under setting [2].
In the same order, the values of `Cc1cc(C(=O)N2CC(OCC(N)=O)C2)cc2c1-c1ccccc1C2(O)C(F)(F)F` (stereo not shown) [compound 352] are 0.1 to 1 µM and 0.109 µM.
As to `CC(C)(C)Cn1cc(-c2cc(C(N)=O)c3c(c2)C(O)(C(F)(F)F)c2ccccc2-3)cn1` (stereo not shown) [compound 646], the IC50 runs as follows: under setting [3], under 0.1 µM; under setting [2], 0.04 µM.
On to `O=C(c1ccc2c(c1)C(O)(C(F)(F)F)c1ccccc1-2)N1CCC1` (stereo not shown) [compound 58], for which the IC50 reads like this: under setting [1], 0.1 to 1 µM; under setting [2], 0.195 µM.
In the same order, the values of `CNC(=O)CCn1cc(-c2cccc3c2-c2ccccc2C3(O)C(F)(F)F)cn1` (stereo not shown) [compound 487] are under 0.1 µM and 0.064 µM.
For `CN(C)C(=O)Cn1cc(-c2cccc3c2-c2ccccc2C3(O)C(F)(F)F)cn1` (stereo not shown) [compound 495] the same measures were 0.1 to 1 µM and 0.119 µM.
With `Cn1cc(-c2cc(OC(CO)CO)cc3c2-c2ccccc2C3(O)C(F)(F)F)cn1` (stereo not shown) [compound 628], the IC50 runs as follows: under setting [3], under 0.1 µM; under setting [2], 0.058 µM.
Turning to `OC1(C(F)(F)F)c2ccccc2-c2c(Cl)cccc21` (stereo not shown) [compound 6], the IC50 reads like this: under setting [1], over 1 µM; under setting [2], 2.29 µM.
Regarding `Cc1cc(-c2ccc3c(c2)C(O)(C(F)(F)F)c2ccccc2-3)ccn1` (stereo not shown) [compound 198], the IC50 reads like this: under setting [1], 0.1 to 1 µM; under setting [2], 0.126 µM.
Consider `OCCCCCCOc1ccc2c(c1)C(O)(C(F)(F)F)c1ccccc1-2` (stereo not shown) [compound 298], for which the IC50 was 0.1 to 1 µM under setting [1] and 0.177 µM under setting [2].
As to `O=C(NCCCCO)c1cc(-c2cncnc2)c2c(c1)C(O)(C(F)(F)F)c1ccccc1-2` (stereo not shown) [compound 371], the IC50 was 0.1 to 1 µM under setting [1] and 0.617 µM under setting [2].
As to `O=C(c1cc(-c2cnn(CCO)c2)c2c(c1)C(O)(C(F)(F)F)c1ccccc1-2)N1CCCC1` (single isomer, unassigned) [compound 657], the IC50 runs as follows: under setting [3], under 0.1 µM; under setting [2], 0.02 µM.
Regarding `Cc1cc(C(=O)N2CCC2)cc2c1-c1ccccc1C2(O)C(F)(F)F` (stereo not shown) [compound 91], the IC50 by setting is: under setting [1], under 0.1 µM; under setting [2], 0.072 µM.
For the compound `Cn1cc(-c2cc(OCC(=O)N3CC(CO)C3)cc3c2-c2ccccc2C3(O)C(F)(F)F)cn1` (single isomer, unassigned) [compound 474], the IC50 under setting [1] is under 0.1 µM and the IC50 under setting [2] was found to be 0.019 µM.
As for `Cn1cc(-c2cc(CCO)c3c(c2)C(O)(C(F)(F)F)c2ccccc2-3)cn1` (stereo not shown) [compound 643], the IC50 was 0.1 to 1 µM under setting [3] and 0.184 µM under setting [2].
As to `Cn1cc(-c2cc(OCCCO)cc3c2-c2ccccc2C3(O)C(F)(F)F)cn1` (stereo not shown) [compound 453], the IC50 was under 0.1 µM under setting [1] and 0.028 µM under setting [2].
In the case of `CNC(=O)c1ccc(-c2ccc3c(c2)C(O)(C(F)(F)F)c2ccccc2-3)cc1` (stereo not shown) [compound 191], the IC50 by setting is: under setting [1], 0.1 to 1 µM; under setting [2], 0.216 µM.
With `Cn1cc(-c2cc(C(N)=O)c3c(c2)C(O)(C(F)(F)F)c2ccccc2-3)cn1` (stereo not shown) [compound 518], the IC50 by setting is: under setting [1], under 0.1 µM; under setting [2], 0.054 µM.
For the compound `COc1cccc2c1-c1ccccc1C2(O)C(F)(F)F` (stereo not shown) [compound 46], the IC50 was over 1 µM under setting [1] and 6.49 µM under setting [2].
For `CC(C)(C)C(=O)N1CCN(c2cc(-c3cccnc3)c3c(c2)C(O)(C(F)(F)F)c2ccccc2-3)CC1` (stereo not shown) [compound 285] the same measures were under 0.1 µM and 0.02 µM.
On to `CC(=O)N(C)Cc1ccc2c(c1)C(O)(C(F)(F)F)c1ccccc1-2` (stereo not shown) [compound 418], for which the IC50 was over 1 µM under setting [1] and 6.07 µM under setting [2].
In the same order, the values of `Cn1cc(-c2cc(C(=O)N3CCC3)cc3c2-c2ccccc2C3(O)C(F)(F)F)cn1` (stereo not shown) [compound 355] are under 0.1 µM and 0.04 µM.
As to `CC(C)Cc1cc(-c2cnn(CCO)c2)c2c(c1)C(O)(C(F)(F)F)c1ccccc1-2` (stereo not shown) [compound 631], the IC50 under setting [3] was under 0.1 µM and the IC50 under setting [2] is 0.062 µM.
In the case of `O=C(O)CCCn1cc(-c2cc(CO)cc3c2-c2ccccc2C3(O)C(F)(F)F)cn1` (stereo not shown) [compound 623], the IC50 is 0.1 to 1 µM under setting [3] and 0.133 µM under setting [2].
Take `COC(=O)C1CCN(c2ccc3c(c2)C(O)(C(F)(F)F)c2ccccc2-3)CC1` (stereo not shown) [compound 218]: the IC50 was over 1 µM under setting [1] and 1.84 µM under setting [2].
`CCCN(C)C(=O)c1ccc2c(c1)C(O)(C(F)(F)F)c1ccccc1-2` (stereo not shown) [compound 307]: the IC50 was over 1 µM under setting [1] and 3.2 µM under setting [2].
For `CC(C)n1cc(-c2cc(OCCCC(=O)O)cc3c2-c2ccccc2C3(O)C(F)(F)F)cn1` (single isomer, unassigned) [compound 553] the same measures were under 0.1 µM and 0.018 µM.
In the case of `OC1(C(F)(F)F)c2ccccc2-c2ccc(-c3ccccc3F)cc21` (stereo not shown) [compound 149], the IC50 runs as follows: under setting [1], over 1 µM; under setting [2], 1.22 µM.
In the same order, the values of `Cn1cc(-c2cc(Cl)cc3c2-c2ccccc2C3(O)C(F)(F)F)cn1` (stereo not shown) [compound 286] are under 0.1 µM and 0.017 µM.
With `O=C(NCCCO)c1ccc2c(c1)C(O)(C(F)(F)F)c1ccccc1-2` (stereo not shown) [compound 311], the IC50 reads like this: under setting [1], over 1 µM; under setting [2], 7.15 µM.
With `NC(=O)c1cc(Cl)cc2c1-c1ccccc1C2(O)C(F)(F)F` (stereo not shown) [compound 636], the IC50 under setting [3] lay in the range of 0.1 to 1 µM and the IC50 under setting [2] worked out at 0.239 µM.
As for `O=C1CCC(COc2ccc3c(c2)C(O)(C(F)(F)F)c2ccccc2-3)N1` (stereo not shown) [compound 419], the IC50 reads like this: under setting [1], 0.1 to 1 µM; under setting [2], 0.504 µM.
In the same order, the values of `Cn1cc(-c2cc(OCCCCCO)cc3c2-c2ccccc2C3(O)C(F)(F)F)cn1` (stereo not shown) [compound 407] are under 0.1 µM and 0.031 µM.
For `O=C(COc1cc(Br)c2c(c1)C(O)(C(F)(F)F)c1ccccc1-2)N1CCC1` (stereo not shown) [compound 437] the same measures were under 0.1 µM and 0.06 µM.
For the compound `O=C(O)c1ccc(-c2cc(-c3cccnc3)c3c(c2)C(O)(C(F)(F)F)c2ccccc2-3)cc1` (stereo not shown) [compound 342], the IC50 under setting [1] was under 0.1 µM and the IC50 under setting [2] turned out to be 0.047 µM.
For `OCCOc1ccc2c(c1)C(O)(C(F)(F)F)c1ccccc1-2` (stereo not shown) [compound 292] the same measures were over 1 µM and 2.57 µM.
`Cc1nn(C)c(C)c1-c1ccc2c(c1)C(O)(C(F)(F)F)c1ccccc1-2` (stereo not shown) [compound 555]: the IC50 is over 1 µM (class symbol of IC50, read-out: PDHK inhibitory activity) and over 1 µM under setting [2].
`COC(=O)c1ccc(F)c2c1-c1ccccc1C2(O)C(F)(F)F` (stereo not shown) [compound 221]: the IC50 runs as follows: under setting [1], over 1 µM; under setting [2], over 10 µM.
Regarding `CC(=O)N(C)C(C)COc1ccc2c(c1)C(O)(C(F)(F)F)c1ccccc1-2` (stereo not shown) [compound 381], the IC50 by setting is: under setting [1], 0.1 to 1 µM; under setting [2], 0.495 µM.
Consider `Cn1cc(-c2cnc3c(c2)C(O)(C(F)(F)F)c2ccccc2-3)cn1` (stereo not shown) [compound 562], for which the IC50 is under 0.1 µM under setting [1] and 0.059 µM under setting [2].
Consider `O=C(O)C1CCCN1C(=O)c1ccc2c(c1)C(O)(C(F)(F)F)c1ccccc1-2` (stereo not shown) [compound 168], for which the IC50 by setting is: under setting [1], over 1 µM; under setting [2], over 10 µM.
For `CN(CCOc1ccc2c(c1)C(O)(C(F)(F)F)c1ccccc1-2)CC(=O)O` (stereo not shown) [compound 444], the IC50 by setting is: under setting [1], over 1 µM; under setting [2], 3.93 µM.
As for `OCCc1ccc2c(c1)C(O)(C(F)(F)F)c1ccccc1-2` (stereo not shown) [compound 405], the IC50 by setting is: under setting [1], over 1 µM; under setting [2], 6.38 µM.
Take `OCC(CO)c1noc(-c2cc(F)cc3c2-c2ccccc2C3(O)C(F)(F)F)n1` (single isomer, unassigned) [compound 685]: the IC50 is, setting by setting: under setting [3], 0.1 to 1 µM; under setting [2], 0.338 µM.

(Values after patent publication US8871934B2, “Fluorene compound and pharmaceutical use thereof” (Japan Tobacco Inc., priority 2008, dated 2014).)
